Experimental data: patent publication US20080207498A1, “Methods for Treating Alzheimer's Disease” (priority 2005, published 2008)

Legend:
[1] = system: FcγIII; assay: Inhibition of FcR binding, reverse ELISA with PAP immune complexes; conditions: PAP pre-incubated with peptide one hour, one hour on FcγR coated plates; lower OD = more inhibition; positive control 1.588
Text: (§1) For this reason, a “reverse ELISA” technique was used to assess binding of the Fc region to ligands that bind to immune complexed IgG Fc. In a reverse ELISA, the enzyme (e.g., HRP) is not covalently conjugated to the Fc portion of the secondary antibody. Rather, a preformed immune complex of peroxidase-rabbit (or mouse) anti-peroxidase IgG (“PAP” complex) is used. […] In these experiments, an Fc CH2-CH3 cleft binding ligand (e.g., purified human C1q) was bound to microwell plates. In the absence of competitor, PAP complexes bound to the immobilized ligand and the reaction between HRP and its substrate produced a signal. This signal was reduced by polypeptides and compounds provided herein that inhibited PAP binding to the immobilized ligand.
(§2) Once the reverse ELISA protocol was established using the C1q assay, the assay was redesigned using […], FcγIIb, and FcγIII in place of C1q. Highly purified FcγIIa, FcγIIb and FcγIII were immunoadsorbed onto plastic microwells. After optimizing the FcγR reverse ELISA system, simple competitive inhibition experiments using polypeptides provided herein were conducted to investigate their ability to inhibit binding of immune complexes to purified FcγR.
(§3) Falcon microtiter plates were coated with 1:10 dilutions of highly purified FcγIIa, FcγIIb and FcγIII and incubated for 24 hours. The plates were washed and then blocked with 5×BSA blocking solution (Alpha Diagnostic International, San Antonio, Tex.) for 24 hours. PAP immune complexes were formed as described above. PAP (100 μl) were pre-incubated with 100 μl of peptide for one hour. PAP/peptide mixtures were added to the FcγR coated plates and incubated for one hour. After washing, plates were incubated with ABTS substrate for 15 minutes and read at 405 nm.

[2] = system: FcγIIb; assay: as above; conditions: PAP pre-incubated with peptide one hour, one hour on FcγR coated plates; lower OD = more inhibition; positive control 1.394
Text: as §1, §2, §3

[3] = system: purified human C1q; assay: Inhibition of C1q binding, reverse ELISA with PAP immune complexes; conditions: for inhibition of C1q binding, ranking in words: comment on Table 1
Text: as §1
PAP complexes were formed mixing 2 μl of rabbit anti-peroxidase (Sigma Chemicals, St. Louis, Mo.) with 50 μl of peroxidase (Sigma-Aldrich, St. Louis, Mo.) in 1 ml distilled water. PAP (100 μl) were pre-incubated with 100 μl of peptide for one hour, 100 μl were pre-incubated with 100 μl of peptide or human C1q (Quidel Corp., San Diego, Calif.) for one hour. The C1q/PAP and peptide/PAP mixtures (100 μl) were incubated with C1q coated plates for 30 minutes. After washing, plates were incubated with ATBS (Quidel Corp.) for 15 minutes and read at 405 nm.

[4] = system: human wt tau protein (441 residues); assay: Inhibition of immune complexed IgG binding to wt tau, reverse ELISA; conditions: for Wt tau protein (read at 405 nm): PAP pre-incubated with peptide one hour, 60 minutes on tau coated plates (16.7 μg/ml), positive control 0.695, substrate only 0.060
Text: as §1
PAP complexes were formed by mixing 2 μl of rabbit anti-peroxidase with 50 μl of peroxidase in 1 ml distilled water. PAP (100 μl) were pre-incubated with 100 μl of peptide for one hour. Control PAP (200 μl) also was incubated for one hour. 100 μl of either PAP or PAP/peptide was added to Falcon microtiter plates that had been coated for 24 hours with 16.7 μg/ml human wt tau protein (441 residues; Sigma-Aldrich). The PAP or peptide/PAP mixtures (100 μl) were added after one hour to tau coated plates and incubated for 60 minutes. After washing, plates were incubated with ATBS for 15 minutes, and read at 405 nm.

[5] = system: human wt β amyloid peptide 1-40; assay: Inhibition of immune complexed IgG binding to wt β-amyloid peptide, reverse ELISA; conditions: for Wt 1-40 β-amyloid peptide (read at 405 nm): PAP pre-incubated with peptide one hour, 60 minutes on β-amyloid coated plates (33 μg/ml), positive control 3.278, substrate only 0.061
Text: as §1
Different fragments of the Aβ peptide contribute to the amyloid plaques pathognomic for AD, and these Aβ fragments appear to stimulate microglial activation and subsequent AD neuropathology. Thus, experiments were conducted to test Aβ 1-40 for binding to immune complexes, and to determine whether the inhibitors described herein can inhibit binding of PAP immune complexes to Aβ peptide. PAP complexes were prepared by mixing 2 μl of rabbit anti-peroxidase with 50 μl of peroxidase in 1 ml distilled water. PAP (100 μl) were pre-incubated with 100 μl of peptide for one hour. Control PAP (200 μl) also were incubated for one hour, and 100 μl of either PAP or PAP/peptide was added to Falcon microtiter plates that had been coated for 24 hours with 33 μg/ml human wt β amyloid peptide 1-40 (amyloid precursor protein (APP) fragment 1-40; Sigma-Aldrich) having the sequence […]Ans-Lys-Gly-Ale-[…](SEQ ID NO:39). The PAP or peptide/PAP mixtures were incubated on the β-amyloid peptide coated plates for 60 minutes. After washing, plates were incubated with ATBS for 15 minutes and read at 405 nm.

[6] = system: FcR; assay: Inhibition of FcR binding to PAP; conditions: comment on Table 2
Method: as §2, §3

[7] = system: IgG Fc; assay: Binding of SEQ ID NO:16 to IgG Fc, alanine substitution; conditions: alanine substitution of SEQ ID NO:16 Val-13 or Trp-14
[8] = system: FcγIIa; assay: Inhibition of FcR binding, reverse ELISA with PAP immune complexes; conditions: PAP pre-incubated with peptide one hour, one hour on FcγR coated plates; lower OD = more inhibition; positive control 1.599
Text: as §1, §2, §3

Sequence: APPCAFHLGELVWCT
- FcγIII (read at 405 nm) [1]: 0.880
- FcγIIb (read at 405 nm) [2]: 0.380

Sequence: APPCARHLGELVWCT
- inhibition of C1q binding, ranking in words [3]: next best result

Sequence: APPCAWHLGELVWCT
- FcγIII (read at 405 nm) [1]: 0.530

Sequence: APPDCAWHLGELVWCT
- inhibition of C1q binding, ranking in words [3]: greatest inhibition of C1q binding, almost equaling C1q itself
- FcγIII (read at 405 nm) [1]: 0.670
- Wt tau protein (read at 405 nm) [4]: 0.059
- inhibition of human wt tau protein binding to PAP, ranking in words ([4]; comment on Table 3): greatest inhibition
- Wt 1-40 β-amyloid peptide (read at 405 nm) [5]: 0.885
- inhibition of FcR binding to PAP, ranking in words [6]: greatest inhibition
- ΔΔG, disruption of binding [7]: ≥ 2.0 kcal/mol

Sequence: DCAFHLGELVWCT
- FcγIII (read at 405 nm) [1]: 0.810
- FcγIIa (read at 405 nm) [8]: 0.660
- FcγIIb (read at 405 nm) [2]: 0.510

Sequence: DCAWHLGELVWCT
- OD 405 nm ([3]; PAP pre-incubated with peptide or C1q for one hour, 30 minutes on C1q coated plates, lower OD = more inhibition, positive control 2.355): 1.100
- Wt tau protein (read at 405 nm) [4]: 0.322
- Wt 1-40 β-amyloid peptide (read at 405 nm) [5]: 0.151
- inhibition of human wt β amyloid peptide binding to PAP, ranking in words ([5]; comment on Table 4): greatest inhibition
